Assays:
[1] = per 1 fg of the peptide; cited from earlier work
[2] = system: patients with AIDS or ARC with elevated IgG and IgA; test: AIDS/ARC patients, effect of amplifier on serum Ig levels; type: in vivo, human; settings: 50 pg biweekly, protocol of Example 10
Protocol: A group of 14 patients with AIDS or ARC were treated biweekly with a standard dosage of IMREG-1 (Beta-1.0), until six doses were given. All 14 initially had elevated IgG production and 13 also had elevated IgA production.
Data was averaged for the 14 high-IgG and 13 high-IgA patients.
A group of patients with AIDS or ARC are treated biweekly with 50 pg of ZB-4, according to the protocol of Example 10.
A group of patients with AIDS or ARC are treated biweekly with 50 pg of Beta-1.11, according to the protocol of Example 10.
A group of patients with AIDS or ARC are treated biweekly with 50 pg of Beta-1.12, according to the protocol of Example 10.

[3] = system: immunoglobulin-producing cells (plaque forming cells) in pokeweed mitogen-exposed PBLs; test: RHPFC assay, PWM-stimulated PBLs of a normal subject cultured 6 days with amplifier; type: cell-based, human; settings: averaged data
Protocol: In order to ascertain whether modulation of B-cell response is appropriate in a particular subject, and to titrate administration of amplifier appropriately for that subject, it is desirable to have a method for assaying the subject's immunoglobulin response. The method described below cultures mitogen-exposed cells in the presence and absence of added amplifier. Then the formation of plaque forming cells (PFCs) is assayed by a reverse hemolytic assay to determine whether and to what extent amplifier modulates formation of PFCs. A dose-dependent amplifier modulation of PFC formation is observed. The PFC assay described hereinafter is a modification of a conventional technique; it is believed that PFC assays have not hitherto been utilized to assess effects of the immunomodulators described herein.
Peripheral blood cell populations (hereinafter PBLs) from test subjects are prepared to isolate mononuclear cells, using conventional methods. The PBLs are adjusted to 10^6 cells/ml in RPM-1640 medium with 25 mM HEPES and L-glutamine (Whittaker Bioproducts), which has been supplemented with 10% heat-inactivated defined fetal bovine serum (Hy-Clone Labs.), 2% PSN Antibiotic (GIBCO Labs., Grand Island, N.Y.) (100×), and 1% extra L-glutamine (GIBCO Labs.) (100×). The resulting PBL mixture is set aside in an ice bucket (4° C.). […]

[4] = system: patient with common variable immunodeficiency, insufficient immunoglobulin production; test: Titration of amplifier dosage, patient with common variable immunodeficiency; type: in vivo, human; settings: 20 to 80 pg intradermal biweekly for eight weeks, 80 kg patient; before 350 ml/dl
Protocol: A patient suffers from common variable immunodeficiency, and they have an lowered serum immunoglobulin (IgG) level ([…]), indicative to the attending physician of insufficient immunoglobulin production. The physician considers it therapeutically desirable to raise the patient's level of immunoglobulin production.
(§1) The patient weighs 80 kg. The physician therefore administers intradermal injections of 20 to 80 pg of ZB-4 (0.25 to 1 pg/kg of body weight) in sterile saline, biweekly, for eight weeks, and then retests. (The appropriate amount is determined by trial and error, and is subject to the physician's discretion. It is believed that 1 pg/kg is an appropriate starting point for such trial and error determination in the case of insufficient Ig production.)

[5] = system: patient with AIDS or ARC, excessive immunoglobulin production; test: Titration of amplifier dosage, AIDS or ARC patient with elevated serum IgG; type: in vivo, human; settings: 20 to 80 pg intradermal biweekly for eight weeks, 80 kg patient; before greater than 1400 mg/dl
Protocol: A patient suffers from AIDS or ARC, and they have an elevated serum immunoglobulin (IgG) level (greater than 1400 mg/dl), indicative to the attending physician of excessive immunoglobulin production. The physician considers it therapeutically desirable to lower the patient's level of immunoglobulin production.
as §1, with “The physician assays the patient's immunoglobulin response by the protocol of Examples 1-4, or alternative as in Example using ZB-4 (Beta-1.11). The patient” for “The patient”, “believed that 0.25 pg/kg is” for “believed that 1 pg/kg is”, “case of excessive Ig production.)” for “case of insufficient Ig production.)”

[6] = system: immunoglobulin-producing cells (plaque forming cells) in PWM-activated PBLs; test: Modified RHPFC assay, amplifier added after B cells were potentiated (7th day); type: cell-based, human; settings: amplifier added after potentiation
Protocol: The foregoing protocol 1 was then altered to test the in vitro effect of adding amplifiers Beta-1.0 or Beta-1.11 to the culture after B cells had already been potentiated (differentiated). Therefore, no amplifier was mixed with the PWM-activated cells at the outset, as in Example 1. Instead, at the stage where 1.12% agarose and Protein A-SRBC reagent are added (here, the 7th day), 25 ul of different amplifier dilutions is also added to the various replicates. The protocol was otherwise the same.
The procedure of Example 6 was repeated with the modified protocol just described.

Substance	amount of Beta-1.0 with approximately the same immunological activity as 1 fg [1]	effect on Ig levels [2]	maximum PFC factor relative to control ([3]; at 100 to 150 pM)	minimum PFC factor relative to control ([3]; between 1 and 10 pM)	serum immunoglobulin level (IgG) after treatment [4]	serum immunoglobulin (IgG) level after treatment [5]	concentration at maximum PFC factor [6]	maximum PFC factor relative to control [6]	minimum PFC factor [6]
Tyr-Gly-Gly [Beta-1.12]	5-10 fg	Substantially the same results are observed as were observed in Example 10	–	–	–	–	–	–	–
Tyr-Gly [ZB-4]	5-10 fg	Substantially the same results are observed as were observed in Example 10	from about half again to double the control PFC factor	from about a quarter to a half the control PFC factor	710 mg/dL	1280 mg/dL	300 to 400 pM	slightly less than the control	approximately 35 % of the control PFC factor

— patent US5013546A, “Methods for modulating antibody production in treating patients with AIDS, ARC and other diseases” (Imreg, Inc., priority 1990, dated 1991)
